Entries after “also recorded” stand apart in the source; their conditions may differ.
Assays:
[1] = system: B. divergens proteasome β5 subunit; type: biochemical, Babesia divergens
Experimental: B. divergens and B. microti protein lysates were prepared from infected red blood cells. Briefly, red blood cells were lysed with 0.15% saponin prepared in 1× Phosphate-Buffered Saline (PBS), pH 7.5, to release intact parasites. Parasites were washed with 1× PBS, pH 7.5 (PBS), by centrifugation and the pellets were stored at −80 °C in PBS plus 20% glycerol. To prepare protein lysates for enzymatic assays, parasites were thawed and transferred to 50 mM HEPES (pH 7.5), 10 μM E64, 100 μM AESBF, 1 μM Pepstatin A, and 1 mM DTT (all Sigma-Aldrich). Cells were ruptured by ultrasonication with an amplitude of 0.5 for 3 cycles of 15 s on ice. To prepare protein lysates for activity-based probing and proteasome purification, parasites were thawed and transferred to 20 mM Tris-HCl, pH 7.5, 1 mM DTT, 10 μM E64, and 5% glycerol. The lysate was sonicated on ice for 3 times and clarified by centrifugation at 17,000g for 10 min at 4 °C.
To further improve the detection of the β5 subunit activity with the Suc-LLVY-amc substrate of the Babesia proteasome as previously published,[27] we aimed to further optimize assay conditions. However, to reduce the number of experimental animals in the study, assay conditions were optimized using protein lysates of B. divergens, which can be grown in vitro, instead of B. microti lysates, which need to be maintained in mice. […] Assay conditions were optimized in 50 μL volumes in round-bottom 96-well plates. Two assay buffers were evaluated. Buffer A, as described previously,[27] consists of 20 mM HEPES, pH 8, 1 mM ATP, and 1 μM E64, while Buffer B consists of 50 mM HEPES, pH 7.5, 5 mM ATP, 10 μM E64, 100 μM AESBF, 1 μM Pepstatin A, and 1 mM DTT. Buffers A and B were tested with either 0.02% SDS or 6.67 ng of PA28 as activators of the proteasome activity. […] The release of the AMC fluorophore was monitored at 37 °C in a Synergy HTX multimode reader (BioTek) with excitation and emission wavelengths set to 340 and 460 nm, respectively.
Proteasome activity in B. microti and B. divergens lysates was screened in the presence of carmaphycin B (CPB) and numerous analogs that were previously designed to target the P. falciparum 20S proteasome.[30] A pool of lysates was made for each species to ensure that equal amounts of the lysates were used in each inhibition reaction. Inhibitors were transferred to black 384-well plates with the ATS acoustic transfer system (ATS-100, Biosera). Lysates were incubated with inhibitors for 30 min at room temperature and activity was assayed in 30 μL reactions. Each reaction mixture contained 5 μL of Babesia lysate, 10 nL of the inhibitor (final concentration of 133.33 nM), and 25 μL of assay buffer with 25 μM substrate succinyl-Leu-Leu-Val-Tyr-7-amido-4-methylcoumarin (Suc-LLVY-amc). The release of the AMC fluorophore was monitored at 37 °C in a Synergy HTX multimode reader (BioTek Instruments, Winooski, VT) with excitation and emission wavelengths set to 340 and 460 nm, respectively. Activity was quantified as RFU per second and normalized to the DMSO control reactions.

[2] = system: endogenous polyubiquitinated proteins in B. divergens; experiment: Western blot of polyubiquitinated proteins in treated B. divergens cultures; type: cell-based, Babesia divergens; settings: 200 nM, 24 h, anti-Ubiquitin K48 western blot, vs 0.1% DMSO
Experimental: To assess the on-target effect of proteasome inhibition, protein lysates of B. divergens isolated from bovine erythrocyte cultures were evaluated for the accumulation of polyubiquitinated proteins. The B. divergens cultures underwent two 12 h treatments (totaling 24 h) with 200 nM of the inhibitor in culture medium. Parasites were released from RBCs and protein lysates were prepared as described above. The resulting samples were then centrifuged at 15,000g for 15 min at 4 °C and protein concentrations of the resulting supernatant were determined using Bradford assay.[29] Samples were prepared for SDS-PAGE in reducing Laemmli buffer supplemented with β-mercaptoethanol. Ten micrograms of protein was applied per lane and proteins were separated on gradient (4–15%) Criterion TGX Stain-Free Precast gels (BioRad) in Tris-Glycine-SDS running buffer (25 mM Tris, 192 mM glycine, and 0.1% (w/vol) SDS, pH 8.3) and visualized using TGX stain-free chemistry (BioRad). […] After washing (3 × 10 min) in PBS-T, signals were detected using Clarity Max Western ECL substrate (BioRad), visualized using a ChemiDoc MP imager, analyzed, and adjusted using the ImageLab freeware (BioRad).

HepG2 cells = settings: previously reported; cited from earlier work

CCCCCC(=O)N[C@H](C(=O)N[C@@H](CCS(C)(=O)=O)C(=O)N[C@@H](CC(C)C)C(=O)[C@@]1(C)CO1)C(C)C [carmaphycin B]
inhibition of β5 activity in B. divergens lysate (in words) [1]: to the same extent as CFZ; also recorded: completely inactivate
accumulation of endogenous polyubiquitinated proteins [2]: marked accumulation
EC50 (HepG2 cells): 12.6 ± 1.4 nM
